According to patent US10011814B2, “Salt formulations for the fermentation of marine microorganisms” (Triphase Research and Development I Corp., priority 2006, dated 2018):

Tested on: Salinispora tropica NPS021184
Experiment: Production of Salinosporamide A and analogs in shake flask or tube culture; titers by HPLC of EtOAc extract
Settings: for % Increase (+) or % decrease (−) of maximum titer: Ex.1 Table 1; for % Increase (+) or % decrease (−) of max titer: Ex.1 Table 2; for % increase/decrease of titer / relative % change (of % relative to Sal A): Ex.2 Table 3; for % Increase (+) or % decrease (−) of average max titer: Ex.2 Table 4; for relative decrease in production (relative to Salinosporamide A): 208 μg/L CoCl2·6H2O in seed medium, 52 μg/L in production medium vs no cobalt in seed
Method: Seed cultures were prepared by inoculating frozen stock of Salinispora tropica NPS021184 into seed medium.
The first seed cultures (either 10 mL medium in a 50-mL tube or 100 mL medium in a 500-mL Erlenmeyer flask) were incubated for 3 to 4 days before inoculating into the second seed media with the same composition as the first seed cultures. The second seed cultures (100 mL medium in a 500-mL Erlenmeyer flask) were incubated for two days before inoculating into the production medium (100 mL medium in a 500-mL Erlenmeyer flask).
The chemically defined salt formulation included: […]
3.5 mL of the fermentation culture was mixed with equal volume of EtOAc in an extraction tube to extract the various metabolites from the production culture. The mixture was shaken on a shaker for one hr. An aliquot of the extract (1 mL) was removed and dried under a stream of nitrogen. The dried extract was stored at −20° C. freezer before HPLC analysis. The dried extract was resuspended in 320 μL DMSO and injected into HPLC using the 00TF14 method for analysis.
The production of Salinosporamide A, NPI-0047 and NPI-2065 was monitored by Agilent HP1100 HPLC using an ACE C-18 reversed-phase column (4.6×150 mm), and solvent system consisting of water (0.01% TFA) as solvent A and acetonitrile (0.01% TFA) as solvent B. The elution was started at 100% solvent A for 1 min, 100% solvent A to 35% solvent A gradient in 7 min, held at 35% solvent A for 11 min, 35% solvent A to 100% solvent B in 8 min and held at 100% solvent B for 9 min at a flow rate of 1.5 mL/min with the detector wavelength set at 210 nm and column temperature 35° C.
The first seed cultures (either 10 mL medium in a 50-mL tube or 100 ml medium in a 500-ml Erlenmeyer flask) were incubated for 3 to 4 days before inoculating into the second seed media with the same composition as the first seed cultures. The second seed cultures (100 mL medium in a 500-mL Erlenmeyer flask) were incubated for two days before inoculating into the production medium (100 mL medium in a 500-mL Erlenmeyer flask).
The first seed cultures (either 10 mL medium in a 50-ml tube or 100 mL medium in a 500-mL Erlenmeyer flask) were incubated for 3 to 4 days before inoculating into the second seed media with the same composition as the first seed cultures. The second seed cultures (100 mL medium in a 500-mL Erlenmeyer flask) were incubated for two days before inoculating into production medium (100 mL medium in a 500-mL Erlenmeyer flask).
3.5 mL of the fermentation culture was mixed with equal volume of EtOAc in an extraction tube to extract the various metabolites from the production culture. The mixture was shaken for 1 hr. An aliquot of the extract (1 mL) was removed and dried under a stream of nitrogen. The dried extract was stored at −20° C. freezer before HPLC analysis. The dried extract was resuspended in […] DMSO and injected into HPLC using the TFS7 method for analysis.
The production of Salinosporamide A, NPI-0047 and NPI-2065 was monitored by Agilent HP1100 HPLC using an ACE C-18 reversed-phase column (4.6×150 mm), and isocratic solvent system consisting of 67% water (0.01% TFA) and 33% acetonitrile (0.01% TFA). The flow rate was 1.5 mL/min for 15 min with the detector wavelength set at 210 nm and column temperature 35° C.
3.5 mL of the fermentation culture was mixed with equal volume of EtOAc in an extraction tube to extract the various metabolites from the production culture. The mixture was shaken on the shaker for 1 hr. An aliquot of the extract (1 mL) was removed and dried under a stream of nitrogen. The dried extract was stored at −20° C. freezer before HPLC analysis. The dried extract was resuspended in 320 μL DMSO and injected into HPLC using the TFS7 method for analysis. […]

[1] = 104 μg/L CoCl2·6H2O in production medium vs no addition
[2] = 1.04 mg/L CoCl2·6H2O in production medium vs no addition
[3] = 10.4 mg/L CoCl2·6H2O in production medium vs no addition
[4] = 2.6 μg/L CoCl2·6H2O in production medium vs control
[5] = 5.2 μg/L CoCl2·6H2O in production medium vs control
[6] = 6.5 μg/L CoCl2·6H2O in production medium vs control
[7] = 13 μg/L CoCl2·6H2O in production medium vs control
[8] = 26 μg/L CoCl2·6H2O in production medium vs control
[9] = 52 μg/L CoCl2·6H2O in production medium vs control
[10] = 104 μg/L CoCl2·6H2O in production medium vs control
[11] = 208 μg/L CoCl2·6H2O in production medium vs control
[12] = 416 μg/L CoCl2·6H2O in production medium vs control
[13] = seed CoCl2·6H2O 0 μg/L (reference)
[14] = seed CoCl2·6H2O 2.6 μg/L vs 0 μg/L
[15] = seed CoCl2·6H2O 5.2 μg/L vs 0 μg/L
[16] = seed CoCl2·6H2O 13 μg/L vs 0 μg/L
[17] = seed CoCl2·6H2O 26 μg/L vs 0 μg/L
[18] = seed CoCl2·6H2O 52 μg/L vs 0 μg/L
[19] = seed CoCl2·6H2O 104 μg/L vs 0 μg/L
[20] = seed CoCl2·6H2O 208 μg/L vs 0 μg/L
[21] = seed CoCl2·6H2O 416 μg/L vs 0 μg/L
[22] = CoCl2·6H2O seed 0 / production 52 μg/L vs no cobalt
[23] = CoCl2·6H2O seed 208 μg/L / production 52 μg/L vs no cobalt
[24] = Ex.2, cobalt in both seed (208 μg/L) and production (52 μg/L) media vs media without cobalt
[25] = Ex.2, cobalt in seed and production media vs cobalt in production medium only

| Structure (SMILES) | % Increase (+) or % decrease (−) of maximum titer [1] [%] | % Increase (+) or % decrease (−) of maximum titer [2] [%] | % Increase (+) or % decrease (−) of maximum titer [3] [%] | % Increase (+) or % decrease (−) of max titer [4] [%] | % Increase (+) or % decrease (−) of max titer [5] [%] | % Increase (+) or % decrease (−) of max titer [6] [%] | % Increase (+) or % decrease (−) of max titer [7] [%] | % Increase (+) or % decrease (−) of max titer [8] | % Increase (+) or % decrease (−) of max titer [9] [%] | % Increase (+) or % decrease (−) of max titer [10] [%] | % Increase (+) or % decrease (−) of max titer [11] [%] | % Increase (+) or % decrease (−) of max titer [12] [%] | % increase/decrease of titer [13] [%] | relative % change (of % relative to Sal A) [13] [%] | % increase/decrease of titer [14] [%] | relative % change (of % relative to Sal A) [14] [%] | % increase/decrease of titer [15] [%] | relative % change (of % relative to Sal A) [15] [%] | % increase/decrease of titer [16] [%] | relative % change (of % relative to Sal A) [16] [%] | further results |
| --- | --- | --- | --- | --- | --- | --- | --- | --- | --- | --- | --- | --- | --- | --- | --- | --- | --- | --- | --- | --- | --- |
| C[C@@]12OC(=O)[C@]1([C@@H](O)[C@@H]1C=CCCC1)NC(=O)[C@H]2CCCl [NPI-2065] | −21.0 | −12.2 | −30.8 | −7.6 | −1.5 | −6.1 | −1.5 | +3.0% | −4.6 | −1.5 | −6.1 | −15.2 | 0.0 | 0.0 | 1.7 | 0.0 | 4.2 | −0.5 | 5.9 | 3.5 | reduction of concentration in the fermentation (Ex.14, vitamin B12 in Instant Ocean based medium): 30%; reduction of concentration in the fermentation (Ex.15, Vitamin B12 or CoCl2·6H2O at 0.22 μM in salt formulation based medium): no reduction; maximum inhibition of production (Ex.1, 416 μg/L, highest cobalt concentration tested in production medium): 15%; inhibition of production (Ex.1, 10.4 mg/L CoCl2·6H2O in production medium vs none): 30.8%; % increase/decrease of titer [17]: 23.1%; relative % change (of % relative to Sal A) [17]: 3.5%; % increase/decrease of titer [18]: 17.7%; relative % change (of % relative to Sal A) [18]: 7.9%; % increase/decrease of titer [19]: 15.5%; relative % change (of % relative to Sal A) [19]: −0.5%; % increase/decrease of titer [20]: 19.7%; relative % change (of % relative to Sal A) [20]: −1.4%; % increase/decrease of titer [21]: 6.2%; relative % change (of % relative to Sal A) [21]: −3%; % Increase (+) or % decrease (−) of average max titer [22]: −37.2%; % Increase (+) or % decrease (−) of average max titer [23]: −44.9%; relative decrease in production (relative to Salinosporamide A) (Ex.2): 1.4%; reduction of production [24]: 44.9%; reduction of production [25]: 12.2% |
| CC[C@H]1C(=O)N[C@@]2([C@@H](O)[C@@H]3C=CCCC3)C(=O)O[C@@]12C [NPI-0047, Salinosporamide B] | −65.9 | −67.4 | −71.3 | −18.6 | −41.2 | −38.2 | −52.0 | −63.7% | −69.6 | −65.7 | −69.6 | −73.5 | 0.0 | 0.0 | 5.9 | 4.2 | 2.0 | −2.7 | −17.2 | −20.2 | reduction of concentration in the fermentation (Ex.14, 0.22 μM vitamin B12 added to production medium (Instant Ocean based)): 74%; reduction of production (Ex.1, 52 μg/L cobalt concentration in production medium vs control): 69.6%; decrease in production (Ex.1, 104 μg/L CoCl2·6H2O added to production medium vs none): 66%; % increase/decrease of titer [17]: −2.3%; relative % change (of % relative to Sal A) [17]: −28.4%; % increase/decrease of titer [18]: −21.6%; relative % change (of % relative to Sal A) [18]: −36.1%; % increase/decrease of titer [19]: −9.2%; relative % change (of % relative to Sal A) [19]: −29.9%; % increase/decrease of titer [20]: −11.9%; relative % change (of % relative to Sal A) [20]: −41.3%; % increase/decrease of titer [21]: −10.4%; relative % change (of % relative to Sal A) [21]: −21.5%; % Increase (+) or % decrease (−) of average max titer [22]: −71.7%; % Increase (+) or % decrease (−) of average max titer [23]: −78.0%; reduction of production by cobalt (Ex.21, NPS21184, CoCl2·6H2O 208 μg/L seed, 52 μg/L production vs no cobalt): 91%; relative decrease in production (relative to Salinosporamide A) (Ex.2): 41.3%; reduction of production [24]: 78.0%; reduction of production [25]: 22.2% |
